Laboratory results: patent US9247759B2, “Identification of human T2R receptors that respond to bitter compounds that elicit the bitter taste in compositions, and the use thereof in assays to identify compounds that inhibit (block) bitter taste in compositions and use thereof” (SENOMYX, INC., priority 2007, dated 2016)
pIC50: −log10 of the molar value. Like-named read-outs stand apart in the source and are kept apart here.

Experiments:
hT2R61 = hT2R61 (Homo sapiens (Human), UniProt P59537); test: hT2R panel inhibition, transient HEK293 G16g44, agonist Aristolochic Acid 25 nM; assay type: cell-based; settings: HEK293, compound at 25 μM; receptor activated to EC80 with the corresponding agonist; read-out: screening result against bitter receptor 61
Summary of the method: (§1)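 Receptor activity was measured in functional assays after single-receptor transient transfection; bitter agonists were used at their EC80 levels. A decrease in that activity when the test compound was added was taken as inhibition.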

hT2R75 = hT2R75 (Homo sapiens (Human), UniProt P59540); test: hT2R panel inhibition, transient HEK293 G16g44, agonist Strychnine 1 μM; assay type: cell-based; settings: HEK293, read-out: screening result against bitter receptor 75, compound at 25 μM; receptor activated to EC80 with the corresponding agonist
hT2R3 = hT2R3 (Homo sapiens (Human), UniProt Q9NYW6); test: hT2R panel inhibition, transient HEK293 G16g44, agonist Chloroquine pH6.5 50 μM; assay type: cell-based; settings: HEK293, compound at 25 μM; receptor activated to EC80 with the corresponding agonist; read-out: screening result against bitter receptor 3
Summary of the method: as §1

hT2R71 = hT2R71 (Homo sapiens (Human), UniProt P59536); test: hT2R panel inhibition, transient HEK293 G16g44, agonist Picric Acid 10 μM; assay type: cell-based; settings: HEK293, compound at 25 μM; receptor activated to EC80 with the corresponding agonist; read-out: screening result against bitter receptor 71
Summary of the method: as §1

hT2R64 = hT2R64 (Homo sapiens (Human), UniProt P59538); test: hT2R panel inhibition, transient HEK293 G16g44, agonist Aristolochic Acid 1 μM; assay type: cell-based; settings: HEK293, compound at 25 μM; receptor activated to EC80 with the corresponding agonist; read-out: screening result against bitter receptor 64
Summary of the method: as §1

hT2R44 = test: hT2R panel inhibition, transient HEK293 G16g44, agonist Denatonium 0.5 μM; assay type: cell-based, human; settings: compound at 25 μM; receptor activated to EC80 with the corresponding agonist
Summary of the method: as §1

hT2R63 = test: hT2R panel inhibition, transient HEK293 G16g44, agonist Caffeine 1 mM or Andrographolide 100 μM; assay type: cell-based, human; settings: compound at 25 μM; receptor activated to EC80 with the corresponding agonist
Summary of the method: as §1

hT2R51 = hT2R51 (Homo sapiens (Human), UniProt P59533); test: hT2R panel inhibition, transient HEK293 G16g44, agonist Prop 2.5 μM; assay type: cell-based; settings: HEK293, compound at 25 μM; receptor activated to EC80 with the corresponding agonist; read-out: screening result against bitter receptor 51
Summary of the method: as §1

hT2R10 = hT2R10 (Homo sapiens (Human), UniProt Q9NYW0); test: hT2R panel inhibition, transient HEK293 G16g44, agonist Strychnine 50 μM; assay type: cell-based; settings: HEK293, read-out: screening result against bitter receptor 10, compound at 25 μM; receptor activated to EC80 with the corresponding agonist
hT2R55 = test: hT2R panel inhibition, transient HEK293 G16g44, agonist Cinchonine 150 μM; assay type: cell-based, human; settings: compound at 25 μM; receptor activated to EC80 with the corresponding agonist
Summary of the method: as §1

hT2R14 [1] = biological target: T1, hT2R14 (Homo sapiens (Human), UniProt Q9NYV8); test: hT2R14 antagonist high-throughput FLIPR assay, stable cell line with G16g44, agonist aristolochic acid; assay type: cell-based
Summary of the method: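 HEK293 cells stably expressing hT2R14 with chimeric G16g44 were stimulated with aristolochic acid (3 μM), giving 70-80% of maximal receptor activity. Test compounds were added together with the agonist, and antagonism was read as fluorescent calcium signal on FLIPR.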

hT2R54 = test: hT2R panel inhibition, transient HEK293 G16g44, agonist Ranitidine 5 mM; assay type: cell-based, human; settings: compound at 25 μM; receptor activated to EC80 with the corresponding agonist
Summary of the method: as §1

hT2R16 = hT2R16 (Homo sapiens (Human), UniProt Q9NYV7); test: hT2R panel inhibition, transient HEK293 G16g44, agonist Salicin 1 mM; assay type: cell-based; settings: HEK293, compound at 25 μM; receptor activated to EC80 with the corresponding agonist; read-out: screening result against bitter receptor 16
Summary of the method: as §1

hT2R7 = hT2R7 (Homo sapiens (Human), UniProt Q9NYW3); test: hT2R panel inhibition, transient HEK293 G16g44, agonist Chloroquine pH6.5 10 mM; assay type: cell-based; settings: HEK293, compound at 25 μM; receptor activated to EC80 with the corresponding agonist; read-out: screening result against bitter receptor 7
Summary of the method: as §1

hT2R14 [2] = biological target: T1, hT2R14; test: hT2R panel inhibition, transient HEK293 G16g44, agonist Aristolochic Acid 2 μM; assay type: cell-based; settings: HEK293, compound at 25 μM; receptor activated to EC80 with the corresponding agonist; read-out: screening result against bitter receptor 14
Summary of the method: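 Each hT2R was transiently transfected into HEK293 cells stably expressing G16g44 and assayed functionally for inhibition of agonist response. Agonists were applied at EC80: andrographolide at 0.5 mM for hT2R8 and aristolochic acid at 2 μM for hT2R14.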

hT2R4 = hT2R4 (Homo sapiens (Human), UniProt Q9NYW5); test: hT2R panel inhibition, transient HEK293 G16g44, agonist Chloroquine pH6.5 5 mM; assay type: cell-based; settings: HEK293, compound at 25 μM; receptor activated to EC80 with the corresponding agonist; class symbols; read-out: screening result against bitter receptor 4
Experimental: Specifically, in order to evaluate the inhibitory selectivity of the Compound C compound, this compound was tested against 22 human T2Rs which were deorphaned by Senomyx. These receptors and the bitter ligands that activate these human T2Rs are reported in earlier patent applications which are incorporated by reference herein. These 22 human T2Rs are hT2R1, 3, 4, 5, 7, 8, 9, 10, 13, 14, 16, 44, 51, 54, 55, 61, 63, 64, 65, 67, 71 and 75. The amino acid and nucleic acid sequences of all of these T2Rs may be found in these earlier patent applications. These human T2Rs were each individually transiently transfected into HEK293 cells that stably express the promiscuous G protein G16g44 and functional assays were effected using these receptors as disclosed in these same patent applications. […] The ligands were used at EC80 concentration levels. The list of bitter ligands utilized and the tested ligand concentrations are contained in Table 5 of this example.
Relating to the foregoing, FIG. 5 contains experimental results wherein Compound C was tested with different agonist compounds. The inhibition activity is represented by the reduction of receptor activity in the presence of Compound C. […] These 13 hT2Rs are hT2R3, 7, 10, 14, 16, 44, 51, 55, 61, 63, 64, 65, and 71.

hT2R65 = test: hT2R panel inhibition, transient HEK293 G16g44, agonist Oleuropein 1 mM; assay type: cell-based, human; settings: compound at 25 μM; receptor activated to EC80 with the corresponding agonist
Summary of the method: as §1

hT2R67 = test: hT2R panel inhibition, transient HEK293 G16g44, agonist Andrographolide 5 μM; assay type: cell-based, human; settings: compound at 25 μM; receptor activated to EC80 with the corresponding agonist
Summary of the method: as §1

hT2R5 = hT2R5 (Homo sapiens (Human), UniProt Q9NYW4); test: hT2R panel inhibition, transient HEK293 G16g44, agonist Picoline 10 mM; assay type: cell-based; settings: HEK293, compound at 25 μM; receptor activated to EC80 with the corresponding agonist; read-out: screening result against bitter receptor 5
Summary of the method: as §1

[3] = read-out: IC50 on hT2R14 bitter receptor

T1 sequence (Q9NYV8 whole entry): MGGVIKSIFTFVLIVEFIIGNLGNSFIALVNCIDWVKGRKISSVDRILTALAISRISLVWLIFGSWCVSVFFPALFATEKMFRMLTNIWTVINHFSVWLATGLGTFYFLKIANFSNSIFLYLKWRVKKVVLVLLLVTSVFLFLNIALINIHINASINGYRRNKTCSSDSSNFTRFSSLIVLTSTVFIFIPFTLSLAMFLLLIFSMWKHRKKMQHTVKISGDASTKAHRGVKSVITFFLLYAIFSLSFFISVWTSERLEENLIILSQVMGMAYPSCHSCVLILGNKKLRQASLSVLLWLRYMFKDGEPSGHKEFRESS
Chain of hT2R61 (P59537 whole entry): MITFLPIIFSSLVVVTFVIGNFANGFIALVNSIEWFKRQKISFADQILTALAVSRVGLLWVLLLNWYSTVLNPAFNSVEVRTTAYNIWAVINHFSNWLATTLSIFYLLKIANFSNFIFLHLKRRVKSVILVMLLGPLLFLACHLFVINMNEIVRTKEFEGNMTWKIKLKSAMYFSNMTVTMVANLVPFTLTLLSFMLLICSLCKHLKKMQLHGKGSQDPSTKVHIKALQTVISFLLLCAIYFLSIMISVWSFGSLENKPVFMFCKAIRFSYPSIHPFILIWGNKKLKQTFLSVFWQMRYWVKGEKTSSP
Chain of hT2R71 (P59536 whole entry): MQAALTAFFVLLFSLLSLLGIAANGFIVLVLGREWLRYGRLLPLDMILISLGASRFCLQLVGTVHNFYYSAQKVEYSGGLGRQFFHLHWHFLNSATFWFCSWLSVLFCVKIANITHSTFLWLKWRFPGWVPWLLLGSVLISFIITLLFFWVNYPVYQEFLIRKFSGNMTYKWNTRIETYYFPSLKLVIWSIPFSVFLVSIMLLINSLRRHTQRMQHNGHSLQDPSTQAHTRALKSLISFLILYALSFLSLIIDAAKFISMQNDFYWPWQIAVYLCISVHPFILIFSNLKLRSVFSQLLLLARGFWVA
Chain of hT2R3 (Q9NYW6 whole entry): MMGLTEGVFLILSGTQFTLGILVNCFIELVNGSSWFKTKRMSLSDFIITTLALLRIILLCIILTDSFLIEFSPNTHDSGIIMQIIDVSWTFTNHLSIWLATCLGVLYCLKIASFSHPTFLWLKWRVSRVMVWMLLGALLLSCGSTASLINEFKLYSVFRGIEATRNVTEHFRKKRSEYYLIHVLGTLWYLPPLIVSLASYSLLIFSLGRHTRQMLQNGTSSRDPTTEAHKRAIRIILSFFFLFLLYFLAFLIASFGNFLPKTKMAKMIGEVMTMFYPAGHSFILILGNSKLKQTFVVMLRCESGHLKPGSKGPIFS
Chain of hT2R75 (P59540 whole entry): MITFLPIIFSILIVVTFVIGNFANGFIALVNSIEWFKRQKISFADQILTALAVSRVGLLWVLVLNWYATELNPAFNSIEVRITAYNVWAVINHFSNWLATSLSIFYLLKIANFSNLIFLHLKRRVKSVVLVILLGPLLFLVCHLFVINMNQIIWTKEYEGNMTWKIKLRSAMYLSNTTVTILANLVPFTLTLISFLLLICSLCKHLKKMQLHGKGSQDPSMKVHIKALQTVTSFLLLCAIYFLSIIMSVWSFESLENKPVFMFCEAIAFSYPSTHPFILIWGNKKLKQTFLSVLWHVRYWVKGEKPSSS
Chain of hT2R7 (Q9NYW3 whole entry): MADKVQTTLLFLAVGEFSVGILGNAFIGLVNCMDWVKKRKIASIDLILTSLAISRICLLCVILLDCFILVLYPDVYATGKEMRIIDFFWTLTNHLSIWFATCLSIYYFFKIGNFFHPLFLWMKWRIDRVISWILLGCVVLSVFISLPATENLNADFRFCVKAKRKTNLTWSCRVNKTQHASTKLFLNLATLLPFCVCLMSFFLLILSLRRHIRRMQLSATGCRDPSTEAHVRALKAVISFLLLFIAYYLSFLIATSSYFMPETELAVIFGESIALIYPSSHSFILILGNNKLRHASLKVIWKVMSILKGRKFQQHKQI
Chain of hT2R4 (Q9NYW5 whole entry): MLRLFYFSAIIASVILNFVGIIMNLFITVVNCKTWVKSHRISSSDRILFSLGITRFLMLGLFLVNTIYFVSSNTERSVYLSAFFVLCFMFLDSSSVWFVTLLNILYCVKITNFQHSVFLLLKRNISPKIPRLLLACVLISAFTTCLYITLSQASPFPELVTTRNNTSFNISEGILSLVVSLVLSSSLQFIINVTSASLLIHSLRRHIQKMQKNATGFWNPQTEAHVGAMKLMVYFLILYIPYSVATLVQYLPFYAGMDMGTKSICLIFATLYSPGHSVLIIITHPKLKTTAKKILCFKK
Chain of hT2R10 (Q9NYW0 whole entry): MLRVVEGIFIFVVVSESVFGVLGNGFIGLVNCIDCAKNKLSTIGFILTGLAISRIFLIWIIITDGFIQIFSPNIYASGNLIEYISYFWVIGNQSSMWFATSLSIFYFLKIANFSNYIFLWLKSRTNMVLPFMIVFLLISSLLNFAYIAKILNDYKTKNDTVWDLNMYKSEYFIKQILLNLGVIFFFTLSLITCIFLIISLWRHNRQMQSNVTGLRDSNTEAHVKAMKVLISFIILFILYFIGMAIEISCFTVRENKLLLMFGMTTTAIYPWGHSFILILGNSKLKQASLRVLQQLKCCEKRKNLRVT
Chain of hT2R64 (P59538 whole entry): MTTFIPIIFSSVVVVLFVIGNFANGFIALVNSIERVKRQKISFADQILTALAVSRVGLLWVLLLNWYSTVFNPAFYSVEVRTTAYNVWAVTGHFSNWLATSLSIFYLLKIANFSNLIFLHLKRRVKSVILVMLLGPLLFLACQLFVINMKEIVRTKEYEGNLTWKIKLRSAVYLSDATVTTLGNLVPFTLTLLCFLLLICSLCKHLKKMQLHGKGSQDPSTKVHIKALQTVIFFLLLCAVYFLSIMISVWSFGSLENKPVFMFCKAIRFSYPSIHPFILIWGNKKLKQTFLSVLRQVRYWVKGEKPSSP
Chain of hT2R16 (Q9NYV7 whole entry): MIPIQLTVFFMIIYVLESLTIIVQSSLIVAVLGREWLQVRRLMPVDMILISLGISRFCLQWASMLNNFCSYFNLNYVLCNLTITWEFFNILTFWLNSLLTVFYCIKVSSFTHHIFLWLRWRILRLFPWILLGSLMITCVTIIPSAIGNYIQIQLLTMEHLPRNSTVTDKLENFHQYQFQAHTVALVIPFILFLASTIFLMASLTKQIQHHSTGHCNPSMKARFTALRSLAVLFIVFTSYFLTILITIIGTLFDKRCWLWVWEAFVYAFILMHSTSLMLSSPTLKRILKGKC
Chain of hT2R51 (P59533 whole entry): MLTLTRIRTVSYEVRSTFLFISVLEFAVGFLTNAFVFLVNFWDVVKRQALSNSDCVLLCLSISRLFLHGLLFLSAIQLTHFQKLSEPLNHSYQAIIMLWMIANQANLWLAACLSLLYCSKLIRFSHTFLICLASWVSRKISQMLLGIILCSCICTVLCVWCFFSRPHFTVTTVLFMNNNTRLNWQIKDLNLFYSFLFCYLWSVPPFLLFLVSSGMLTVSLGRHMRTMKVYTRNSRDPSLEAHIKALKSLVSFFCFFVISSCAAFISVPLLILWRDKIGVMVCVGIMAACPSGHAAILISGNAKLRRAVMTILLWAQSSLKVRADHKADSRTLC
Chain of hT2R5 (Q9NYW4 whole entry): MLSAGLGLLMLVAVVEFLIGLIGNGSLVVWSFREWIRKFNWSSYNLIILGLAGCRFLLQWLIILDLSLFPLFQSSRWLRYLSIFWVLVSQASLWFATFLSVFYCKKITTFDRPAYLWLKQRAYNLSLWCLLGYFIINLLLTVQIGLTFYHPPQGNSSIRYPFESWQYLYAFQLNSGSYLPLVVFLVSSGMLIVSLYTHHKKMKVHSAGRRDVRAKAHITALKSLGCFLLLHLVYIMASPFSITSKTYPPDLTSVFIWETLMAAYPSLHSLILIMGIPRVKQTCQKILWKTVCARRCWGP

Compound	inhibition at 25 µM (hT2R61) [%]	inhibition at 25 µM (hT2R75) [%]	inhibition at 25 µM (hT2R3) [%]	inhibition at 25 µM (hT2R71) [%]	inhibition at 25 µM (hT2R64) [%]	screening result against bitter receptor 44 (hT2R44)	screening result against bitter receptor 63 (hT2R63)	inhibition at 25 µM (hT2R51) [%]	inhibition at 25 µM (hT2R10) [%]	screening result against bitter receptor 55 (hT2R55)	pIC50 (hT2R14 [1]; [3])	screening result against bitter receptor 54 (hT2R54)	inhibition at 25 µM (hT2R16) [%]	inhibition at 25 µM (hT2R7) [%]	inhibition at 25 µM (hT2R14 [2]) [%]	inhibition at 25 µM (hT2R4) [%]	screening result against bitter receptor 65 (hT2R65)	screening result against bitter receptor 67 (hT2R67)	pIC50 (hT2R14 [1]; Table C, read-out: hT2R14 IC50)	inhibition at 25 µM (hT2R5) [%]
COc1cccc(CN(Cc2ccco2)S(=O)(=O)c2ccc(C(=O)O)cc2)c1 [Example 5-6, 4-(N-(furan-2-ylmethyl)-N-(3-methoxybenzyl)sulfamoyl)benzoic acid]	> 80	20 to 40	20 to 40	40 to 60	> 80	++ (40% to 60% inhibition = ++)	++++ (80% or greater inhibition = ++++)	40 to 60	40 to 60	++++ (80% or greater inhibition = ++++)	5.00	+ (20% to 40% inhibition = +)	20 to 40	20 to 40	> 80	20 to 40	+ (20% to 40% inhibition = +)			
COc1ccccc1CN(Cc1ccco1)S(=O)(=O)c1ccc(C(=O)O)cc1 [Example 5-7, 4-(N-(furan-2-ylmethyl)-N-(2-methoxybenzyl)sulfamoyl)benzoic acid]	> 80	20 to 40	20 to 40	40 to 60	> 80	++ (40% to 60% inhibition = ++)	++++ (80% or greater inhibition = ++++)		20 to 40	++++ (80% or greater inhibition = ++++)	4.92			20 to 40	40 to 60	20 to 40		+ (20% to 40% inhibition = +)		
CCCOc1ccc(CN(Cc2ccco2)S(=O)(=O)c2ccc(C(=O)O)cc2)cc1 [Example 5-8, 4-(N-(4-propoxybenzyl)-N-(furan-2-ylmethyl)sulfamoyl)benzoic acid]	60 to 80	20 to 40	20 to 40	40 to 60	> 80	++ (40% to 60% inhibition = ++)	++ (40% to 60% inhibition = ++)	40 to 60	40 to 60	++++ (80% or greater inhibition = ++++)	5.60	+ (20% to 40% inhibition = +)	20 to 40		> 80	40 to 60	++ (40% to 60% inhibition = ++)			
CCCN(Cc1ccc(OC)cc1)S(=O)(=O)c1ccc(C(=O)O)cc1 [Example 5-17, 4-(N-(4-methoxybenzyl)-N-propylsulfamoyl)benzoic acid]	> 80	20 to 40	20 to 40	40 to 60		+++ (60% to 80% inhibition = +++)				++++ (80% or greater inhibition = ++++)	5.43	++ (40% to 60% inhibition = ++)	20 to 40	20 to 40	> 80	20 to 40	++ (40% to 60% inhibition = ++)			
O=C(O)C1CCC(CN(Cc2ccc(F)cc2)S(=O)(=O)c2cccs2)CC1 (stereo not drawn) [Example 5-51, 4-((N-(4-fluorobenzyl)thiophene-2-sulfonamido)methyl)cyclohexanecarboxylic acid]	> 80	20 to 40	40 to 60	40 to 60	40 to 60	++ (40% to 60% inhibition = ++)	+++ (60% to 80% inhibition = +++)		20 to 40	+++ (60% to 80% inhibition = +++)			20 to 40	20 to 40	> 80	20 to 40	+ (20% to 40% inhibition = +)		6.47	
O=C(O)c1ccc(CN(Cc2ccc(F)cc2)S(=O)(=O)c2ccccc2)cc1 [Example 5-105, 4-((N-(4-fluorobenzyl)phenylsulfonamido)methyl)-benzoic acid]	> 80	20 to 40	20 to 40	60 to 80	> 80	++ (40% to 60% inhibition = ++)	++ (40% to 60% inhibition = ++)		20 to 40	++++ (80% or greater inhibition = ++++)		+ (20% to 40% inhibition = +)	40 to 60	20 to 40	> 80	20 to 40	+++ (60% to 80% inhibition = +++)	++ (40% to 60% inhibition = ++)	6.03	20 to 40
